Some results are limits rather than exact numbers.

This passage reports IC50 and melting point results from US7632838B2, “11-beta HSD1 inhibitors” (Wyeth, priority 2006, dated 2009).

For one series, the target named is T1, human 11 b-HSD1 (Homo sapiens, UniProt P28845).
T1 construct: expressed in transfected cells
T1 sequence (P28845 whole entry): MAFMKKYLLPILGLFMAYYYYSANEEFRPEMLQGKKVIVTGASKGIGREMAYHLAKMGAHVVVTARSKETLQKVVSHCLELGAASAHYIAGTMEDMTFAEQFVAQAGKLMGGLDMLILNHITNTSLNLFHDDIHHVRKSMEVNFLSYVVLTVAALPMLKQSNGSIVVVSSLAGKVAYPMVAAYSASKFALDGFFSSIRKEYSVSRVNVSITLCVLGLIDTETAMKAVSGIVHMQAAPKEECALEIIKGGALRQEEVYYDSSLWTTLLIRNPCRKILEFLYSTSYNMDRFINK
In words: cell-based assay, stable CHO cell line expressing human 11 b-HSD1 (cortisone to cortisol, DiscoverX HitHunter Cortisol Assay). Conditions: 11βHSD1 inhibition; stated as 'less than about'; read-out: inhibition constant IC50. As to the method:
Compounds described herein can be tested in a cell-based assay using a stable CHO cell line expressing human 11 b-HSD1. Cells are plated at 20,000 cells/well in 96 well plates and incubated overnight (12-16 hrs) at 37° C./5% CO2. Cells are treated with different concentration of compound in 90 microliter serum-free media and incubated for 30 minutes at 37° C./5% CO2. 10 ul of 5 micromolar cortisone (final concentration 500 nM) is then added to the cells and the plate is incubated at 37° C./5% CO2 for 120 minutes. 15 microliter of media is withdrawn and amount of cortisol in the media is measured using the DiscoverX HitHunter Cortisol Assay (DiscoverX corp, CA).
Take `Cc1ccc(S(=O)(=O)N2CCN(c3ncccc3Cl)CC2)cc1` [Example 2F, 1-(3-chloropyridin-2-yl)-4-[(4-methylphenyl)sulfonyl]piperazine]: the IC50 is < 10 µM.

For `O=S(=O)(c1ccc2ccccc2c1)N1CCN(c2ncccc2Cl)CC1` [Example 2B, 1-(3-chloropyridin-2-yl)-4-(2-naphthylsulfonyl)piperazine], the IC50 was < 10 µM.

With `O=S(=O)(c1ccc(C(F)(F)F)cc1Br)N1CCN(c2ncccc2Cl)CC1` [Example 2J, 1-{[2-bromo-4-(trifluoromethyl)phenyl]sulfonyl}-4-(3-chloropyridin-2-yl)piperazine], the IC50 is < 10 µM.

In the case of `O=S(=O)(c1ccc(Cl)cc1)N1CCN(c2ncccc2Cl)CC1` [Example 2E, 1-[(4-chlorophenyl)sulfonyl]-4-(3-chloropyridin-2-yl)piperazine], the IC50 is < 10 µM.

For `O=S(=O)(c1ccc(-c2ccccc2)cc1)N1CCN(c2ncccc2Cl)CC1` [Example 2H, 1-(biphenyl-4-ylsulfonyl)-4-(3-chloropyridin-2-yl)piperazine], the IC50 is < 10 µM.

As for `O=S(=O)(Cc1ccccc1)N1CCN(c2ncccc2Cl)CC1` [Example 2I, 1-(benzylsulfonyl)-4-(3-chloropyridin-2-yl)piperazine], the IC50 was < 10 µM.

Take `C[C@H]1CN(C(=O)OCc2ccccc2)C[C@H](C)N1S(=O)(=O)c1ccc(C(C)(C)C)cc1` [Example 5, Benzyl (3S,5S)-4-[(4-tert-butylphenyl)sulfonyl]-3,5-dimethylpiperazine-1-carboxylate]: the half-maximal inhibitory concentration (IC50) was < 10 µM.

Turning to `O=S(=O)(c1ccccc1Cl)N1CCN(c2ncccc2Cl)CC1` [Example 2D, 1-[(2-chlorophenyl)sulfonyl]-4-(3-chloropyridin-2-yl)piperazine], the IC50 is < 10 µM.

Take `COc1ccc(S(=O)(=O)N2CCN(c3ncccc3Cl)CC2)cc1` [Example 2G, 1-(3-chloropyridin-2-yl)-4-[(4-methoxyphenyl)sulfonyl]piperazine]: the IC50 was < 10 µM.

`N#Cc1cccnc1N1CCN(S(=O)(=O)c2ccc(Cl)c(Cl)c2)CC1` [Example 13B, 2-{4-[(3,4-dichlorophenyl)sulfonyl]piperazin-1-yl}nicotinonitrile]: the IC50 was < 10 µM.

Regarding `C[C@H]1CN(c2ncccc2Cl)C[C@H](C)N1S(=O)(=O)c1ccc(C(C)(C)C)cc1` [Example 6, (2S,6S)-1-[(4-tert-butylphenyl)sulfonyl]-4-(3-chloropyridin-2-yl)-2,6-dimethylpiperazine], the IC50 was < 10 µM.

In the case of `O=[N+]([O-])c1cccnc1N1CCN(S(=O)(=O)c2ccc(Cl)c(Cl)c2)CC1` [Example 13C, 1-[(3,4-dichlorophenyl)sulfonyl]-4-(3-nitropyridin-2-yl)piperazine], the IC50 is < 10 µM.

As to `CC(C)(C)c1ccc(S(=O)(=O)N2CCN(c3ncccc3Cl)CC2)cc1` [Example 2A, 1-[(4-tert-butylphenyl)sulfonyl]-4-(3-chloropyridin-2-yl)piperazine], the IC50 is < 10 µM.

In the case of `O=S(=O)(c1ccc2ccccc2c1)N1CCN(c2ccc(F)cc2C(F)(F)F)CC1` [Example 9F, 1-[4-fluoro-2-(trifluoromethyl)phenyl]-4-(2-naphthylsulfonyl)piperazine], the IC50 is < 10 µM.

Consider `O=S(=O)(c1ccc(Cl)c(Cl)c1)N1CCN(c2ncccc2F)CC1` [Example 13A, 1-[(3,4-dichlorophenyl)sulfonyl]-4-(3-fluoropyridin-2-yl)piperazine], for which the IC50 is < 10 µM.

System in a further series: not given
Assay: not given
Conditions: not given
`O=C(N1CCC(Oc2c(Cl)cccc2Cl)CC1)C12CC3CC(CC(C3)C1)C2` [Example 18D, Adamantan-1-yl-[4-(2,6-dichloro-phenoxy)-piperidin-1-yl]-methanone] showed a melting point of 191 to 199 °C.

As a reminder, the IC50 is the concentration that inhibits the measured activity by half. In general, melting point refers to the temperature of the solid-liquid transition.
